In US9682024B2, “Protection against sunburn and skin problems with topical and orally-ingested dosages of zeaxanthin” (ZeaVision, LLC, priority 2002, dated 2017):

Columns and labels:
[1] = system: skin cells in culture; conditions: quoted from Biesalski et al 2001; cited from earlier work
[2] = system: human fibroblast cells; conditions: Eichler et al 2002; cited from earlier work
[3] = system: skin diseases such as porphyria; conditions: cited from earlier work
[4] = system: lung cancer; conditions: smokers; daily ingestion of 30 to 60 mg/day; cited from earlier work
[5] = according to Lorenz, US 6,433,025; cited from earlier work
[6] = system: retinas; conditions: in vivo; cited from earlier work
[7] = in vivo
Description: One aspect of that project involved testing both zeaxanthin and lutein, in various dosages and formulations, to evaluate the increases that would result in circulating blood, and in retinal tissue, in human volunteers. A set of tests on human volunteers was developed with assistance by outside experts with skill and experience in that type of planning, and proper steps were taken to obtain informed consent from all volunteers.

[8] = system: skin; assay: Minimal erythemal dosage (MED) test with medical-grade UV lamp after oral zeaxanthin; format: in vivo, human
[9] = system: skin; assay: Darkening of skin color after oral zeaxanthin; format: in vivo, human
Description: (§1) That dosage was in the range of about 60 mg of zeaxanthin per day for roughly 2 weeks, then about 80 mg/day for a week).
(§2) One coworker began taking 10 mg/day during April, and increased to 20 mg/day during May, and then increased to 40 mg/day during June. […] In July, they increased their dosage to 80 mg/day during several week-long periods, to see what effect it would have on skin color, and on sunburn resistance.
(§3) After seeing and hearing the highly positive results obtained by the two people described in Examples 1 and 2, another coworker decided to also begin taking zeaxanthin at 40 mg/day, starting a couple of weeks before going on a summer vacation with their family.
(§4) A third coworker began taking 10 mg of zeaxanthin per day. Although they were aware of the above-described anecdotal reports of sunburn protection being provided by higher dosages, they decided to not alter their dosage, and they stayed at a dosage of 10 mg/day.
Promptly after that baseline determination, this person began ingesting 30 mg of zeaxanthin per day (10 mg with […] morning meal, and 20 mg with […] evening meal, using the 10 mg capsules available from ZeaVision LLC). During that time, […] continued to take the same anti-oxidant regimen as before. […] […] then re-tested […], using the same UV lamp and procedures as before.

[10] = Tolerability and excretion of high oral zeaxanthin dosages; format: in vivo, human
[11] = reported to US-FDA by Roche Vitamins Inc.; cited from earlier work
[12] = system: skin; assay: Sunburn protection during prolonged exposure to direct sunlight after oral zeaxanthin; format: in vivo, human
Description: as §1
While in the Caribbean, they intentionally exposed themself to direct sunlight at a substantially higher intensity than they normally received in their home state of Missouri, for sufficient periods of time to give them an “onset” type of sunburn, which would convert to a suntan over a span of several days if they took proper care of their skin and put lotion on it. […] Instead, any mild redness they experienced in the evening, at the end of a day with a prolonged session in the sun, was not accompanied by sensations of pain, burning, tightness, or dryness in the skin, and it converted to a normal (or slightly reddish, but not uncomfortable) suntan within less than 24 hours.
as §2
On a couple of weekend days during July, and during a family vacation in early August, they deliberately subjected themself to prolonged sun exposure without any sun-blocking lotion, including sessions that normally would have caused them substantial or severe sunburns accompanied by serious discomfort. Instead of receiving those types of sunburns, by the evening of a day like that, they could detect some redness in their skin color, and a heightened condition of skin sensitivity; however, they felt no serious discomfort or sense of “radiating heat” in their skin, and no interference with their ability to sleep comfortably; in addition, by the following day, the redness appeared to be entirely gone.
as §3, §4

[13] = cited from earlier work

In the case of `CC1=C(/C=C/C(C)=C/C=C/C(C)=C/C=C/C=C(C)/C=C/C=C(C)/C=C/C2=C(C)CCCC2(C)C)C(C)(C)CCC1` [β-carotene], the “oxidant properties in cultured skin cells” value [1] is listed as “unexpected prooxidant properties”, the “amount of carotenoid needed for optimal protection” value (from here on “amount of carotenoid needed”) [2] is listed as 0.40 nmol/mg protein and the “effective dosage level to treat skin diseases” value [3] is listed as 180 mg/day. For the same compound, the “elevation of risk of lung cancer” value [4] was ~30%.
For `CC1=C(/C=C/C(C)=C/C=C/C(C)=C/C=C/C=C(C)/C=C/C=C(C)/C=C/C2=C(C)C(=O)[C@@H](O)CC2(C)C)C(C)(C)C[C@H](O)C1=O` [astaxanthin], the “potency as anti-oxidant protective agent versus other carotenoids” value [5] is listed as “roughly ten times the potency”.
For `CC1=C[C@H](O)CC(C)(C)[C@H]1/C=C/C(C)=C/C=C/C(C)=C/C=C/C=C(C)/C=C/C=C(C)/C=C/C1=C(C)C[C@@H](O)CC1(C)C` [lutein], the “amount of carotenoid needed” value [2] is listed as 0.30 nmol/mg protein.
For `CC(C)=CCC/C(C)=C/C=C/C(C)=C/C=C/C(C)=C/C=C/C=C(C)/C=C/C=C(C)/C=C/C=C(\C)CCC=C(C)C` [lycopene], the “amount of carotenoid needed” value [2] is given as 0.05 nmol/mg protein.
In the case of `CC1=C(/C=C/C(C)=C/C=C/C(C)=C/C=C/C=C(C)/C=C/C=C(C)/C=C/C2=C(C)C(=O)CCC2(C)C)C(C)(C)CCC1=O` [canthaxanthin], the retinal side effect [6] is given as “canthaxanthin crystals were being formed and deposited in the retinas”.
With `CC1=C(/C=C/C(C)=C/C=C/C(C)=C/C=C/C=C(C)/C=C/C=C(C)/C=C/C2=C(C)C[C@@H](O)CC2(C)C)C(C)(C)C[C@H](O)C1` [zeaxanthin] the “dosage response in circulating blood concentrations” value [7] was “valid dosage response”, the “MED increase, post-ingestion compared to pre-ingestion” value ([8]; each volunteer of the UV lamp tests, 30 mg/day or higher) was > 30% and the “MED level relative to baseline value” ([8]; first inventor, 60 mg/day for another 3 weeks, baseline 7) was “more than double”. The “post-ingestion MED (minimal erythemal dosage)” value (from here on “post-ingestion MED”) ([8]; first inventor, oral 30 mg/day for 3 weeks, baseline 7.0 minutes, on top of anti-oxidant regimen) was 10.5 min, the “post-ingestion MED” value ([8]; first inventor, then 60 mg/day for another 3 weeks, baseline 7.0 minutes) was 16 min and the “MED value relative to baseline” value ([8]; second volunteer, 60 mg/day for 20 days) was “doubled”. The “post-ingestion MED” value ([8]; second volunteer, 60 mg/day for 20 days, baseline 5.0 minutes) was 10 min, the “redness of longest-duration UV-exposed skin patches” value ([8]; two subjects after ingesting zeaxanthin, UV up to >20 minutes and up to 15 minutes) was “plateau effect” and the “peeling or flaking of clearly UV-burned spots” value ([8]; two subjects, post-ingestion tests, after several days) was “did not begin peeling or flaking”. For the same compound, the skin color change ([9]; Example 1, about 60 mg/day roughly 2 weeks, then about 80 mg/day for a week) was “noticeable change in the color and tint of their skin”, the skin color change ([9]; Example 2 coworker, 40 mg/day) was “slight but noticeable darkening of their skin” and the skin color change ([9]; Example 2 coworker, 80 mg/day during several week-long periods) was “noticeably darker”. The skin color change ([9]; Example 3 coworker, 40 mg/day for a couple of weeks) was “mildly darker and more tanned shade”, the skin color change ([9]; Example 4 coworker, 10 mg/day) was “could not detect any change in their skin color” and the skin coloration ([9]; all volunteers who ingested 30 mg or more per day) was “darkened coloration”. For the same compound, the skin color change ([9]; first inventor, 30 mg/day for three weeks) was “slightly perceptible color change in the palms of the hands”, the fecal coloration ([10]; high dosages, humans) was “changes in fecal coloration” and the adverse effects ([10]; second inventor, 80 mg/day) was “no adverse effects”. For the same compound, the “No Adverse Effect Level (NOAEL)” value [11] was 1200 mg/day, the “time for mild redness to convert to normal suntan” value ([12]; Example 1, about 60 then 80 mg/day) was “less than 24 hours” and the “sunburn after prolonged direct sunlight” value ([12]; Example 1, about 60 then 80 mg/day, Caribbean) was “did not get sunburned in the normal manner”. For the same compound, the “sunburn after prolonged sun exposure without sun-blocking lotion” value ([12]; Example 2 coworker, up to 80 mg/day) was “excellent protection against sunburn”, the “sunburn after prolonged sun exposure with no protective lotion” value ([12]; Example 3 coworker, 40 mg/day) was “had not suffered any sunburns” and the “sunburn after prolonged session of exposure to the sun” value ([12]; Example 4 coworker, 10 mg/day) was “suffered a noticeable sunburn”. The solubility in water [13] was “not soluble in water”.
